Source: US20240252693A1, “FOLATE RECEPTOR-TARGETED RADIOTHERAPEUTIC AGENTS AND THEIR USE” (Novartis AG, priority 2021, published 2024)
Values joined by “and” are separate entries in the source; they are usually repeats but may differ in a detail not shown here. Identical values can stand only once. *1 amine or outer side, *2 acyl side, *3 side chain or, on linkers, in order; H or OH if unused. Where a SMILES comes first, the peptide text is derived from it. [ ]: non-standard residue; d: D form. The star is where a group is joined. NH(1-deoxy-D-glucityl) = OC[C@@H](O)[C@@H](O)[C@H](O)[C@@H](O)CN*; DOTA = O=C(O)CN1CCN(CC(=O)O)CCN(CC(=O)*)CCN(CC(=O)O)CC1; Pteroyl = Nc1nc2ncc(CNc3ccc(C(=O)*)cc3)nc2c(=O)[nH]1; γGlu = O=C(O)[C@H](CCC(=O)[*:2])N[*:1]; βAsp = O=C(O)[C@H](CC(=O)[*:2])N[*:1]; Dap = NC[C@H](N)C(=O)O

Each molecule was assayed on FR-positive M109 tumor (assay: In vivo biodistribution in mice bearing M109 tumors). Settings: 111In chelate, 100 nmol/kg.
Text: Four- to eight-week-old female nu/nu mice or NSG mice (Harlan Sprague-Dawley, Inc.) were maintained on a standard 12-h light-dark cycle and fed ad libitum with Folate deficient purified rodent diet (TestDiet #AIN-93G) for the duration of the experiment. FR-positive M109 or FR-negative HT29 tumor cells were inoculated in the subcutis dorsal medial area of mice. The biodistribution studies were typically performed when tumors were approximately 400-800 mm^3 in volume. Mice were divided into groups of three, and freshly prepared test articles and competitors were injected through the lateral tail vein in a volume of 100 μL/10 g of PBS. Four h to six days post radioactive-agent dose administration, mice were euthanized and organs (blood, heart, lungs, liver, spleen, and kidneys, intestine, stomach, muscle, brain and tumor) were collected, weighed and placed inside counting vials. Each tissue sample was counted for the activities of radioelement using a gamma-counter. Samples of the injectate were used as decay correction standards. Final bar graphs are expressed as % injected dose per gram of tissue or tumor to kidney ratio, or % tumor to (kidneys+liver+spleen) ratio.

T/Kid | T/Liv | T/spl | T^2/kid | SMILES
0.19 +/− 0.01 | 5.7 +/− 1.5 | 28.0 +/− 31^ | 1.0 +/− 0.14 | Nc1nc2ncc(CNc3ccc(C(=O)N[C@@H](CC(=O)N[C@@H](CCC(=O)NC[C@H](O)[C@@H](O)[C@H](O)[C@H](O)CO)C(=O)N[C@@H](CCC(=O)NC[C@H](O)[C@@H](O)[C@H](O)[C@H](O)CO)C(=O)N[C@@H](CCC(=O)NC[C@H](O)[C@@H](O)[C@H](O)[C@H](O)CO)C(=O)N[C@@H](CNC(=O)CN4CCN(CC(=O)O)CCN(CC(=O)O)CCN(CC(=O)O)CC4)C(=O)O)C(=O)O)cc3)nc2c(=O)[nH]1 [Compound 11] ({Pteroyl-βAsp}-E(NH(1-deoxy-D-glucityl))E(NH(1-deoxy-D-glucityl))E(NH(1-deoxy-D-glucityl))[Dap](DOTA)-OH)
0.22 +/− 0.06 | 6.4 +/− 1.5 | 31.9 +/− 7.6 | 1.7 +/− 1.1 | Nc1nc2ncc(CNc3ccc(C(=O)N[C@@H](CCC(=O)N[C@@H](CCC(=O)NC[C@H](O)[C@@H](O)[C@H](O)[C@H](O)CO)C(=O)N[C@@H](CCC(=O)NC[C@H](O)[C@@H](O)[C@H](O)[C@H](O)CO)C(=O)N[C@@H](CCC(=O)NC[C@H](O)[C@@H](O)[C@H](O)[C@H](O)CO)C(=O)N[C@@H](CNC(=O)CN4CCN(CC(=O)O)CCN(CC(=O)O)CCN(CC(=O)O)CC4)C(=O)O)C(=O)O)cc3)nc2c(=O)[nH]1 [Compound 13] ({Pteroyl-γGlu}-E(NH(1-deoxy-D-glucityl))E(NH(1-deoxy-D-glucityl))E(NH(1-deoxy-D-glucityl))[Dap](DOTA)-OH)
0.098 +/− 0.003 | 1.2 +/− 0.1 | 2.1 +/− 0.3 | 0.03 +/− 0.001 | Nc1nc(O)c2nc(CNc3ccc(C(=O)N[C@@H](CCC(=O)NCCNC(=O)CCC(C(=O)O)N4CCN(CC(=O)O)CCN(CC(=O)O)CCN(CC(=O)O)CC4)C(=O)O)cc3)cnc2n1 (some centres unmarked) [Compound 28]

Same assay, conditions: 177Lu chelate, 100 nmol/kg

T/Kid | T/Liv | T/spl | T^2/kid | SMILES
0.30 +/− 0.04 | 0.93 +/− 0.15 | 10.6 +/− 1.8 | 1.6 +/− 0.4 | Nc1nc2ncc(CNc3ccc(C(=O)N[C@@H](CNC(=O)CN4CCN(CC(=O)O)CCN(CC(=O)O)CCN(CC(=O)O)CC4)C(=O)O)cc3)nc2c(=O)[nH]1 [Compound 3]
0.21 +/− 0.01 | 4.6 +/− 2.1 | 16.4 +/− 1.9 | 1.5 +/− 0.3 | Nc1nc2ncc(CNc3ccc(C(=O)N[C@@H](CNC(=O)C[C@H](NC(=O)CN4CCN(CC(=O)O)CCN(CC(=O)O)CCN(CC(=O)O)CC4)C(=O)O)C(=O)O)cc3)nc2c(=O)[nH]1 [Compound 20]

SMILES | T/Kid | T/Liv | T/spl | T^2/kid
Nc1nc2ncc(CNc3ccc(C(=O)N[C@@H](CNC(=O)CCC(C(=O)O)N4CCN(CC(=O)O)CCN(CC(=O)O)CCN(CC(=O)O)CC4)C(=O)O)cc3)nc2c(=O)[nH]1 (some centres unmarked) [Compound 5] | 0.22 +/− 0.08 and 0.16 +/− 0.01 and 0.25 +/− 0.07 | – | 25.3 +/− 11.4 and 14.6 +/− 3.0 and 24.4 +/− 8.8 | 1.6 +/− 1.0 and 1.1 +/− 0.3 and 2.0 +/− 1.2

Same assay, conditions: 177Lu chelate, 200 nmol/kg

T/Kid | T/Liv | T/spl | T^2/kid | SMILES
0.23 +/− 0.03 | 9.0 +/− 0.9 | 56.4 +/− 6.2 | 0.76 +/− 0.12 | CSCC[C@H](NC(=O)CN1CCN(CC(=O)O)CCN(CC(=O)O)CCN(CC(=O)O)CC1)C(=O)N[C@H](C(=O)N[C@@H](CCCCNC(=O)C[C@H](NC(=O)c1ccc(NCc2cnc3nc(N)[nH]c(=O)c3n2)cc1)C(=O)O)C(=O)O)C(C)C [Compound 54, Pte-Asp(DOTA-Met-Val-ε-Lys-OH)—OH]
0.29 +/− 0.08 | 10.1 +/− 3.2 | 55.6 +/− 17.1 | 1.37 +/− 0.73 | Nc1nc2ncc(CNc3ccc(C(=O)N[C@@H](CNC(=O)CNC(=O)CN4CCN(CC(=O)O)CCN(CC(=O)O)CCN(CC(=O)O)CC4)C(=O)O)cc3)nc2c(=O)[nH]1 [Compound 68, Pte-Dap(Gly-DOTA)-OH]

Same assay, conditions: 177Lu chelate, 300 nmol/kg

SMILES | T/Kid | T/Liv | T/spl | T^2/kid
Nc1nc2ncc(CNc3ccc(C(=O)N[C@@H](CCCCNC(=O)COc4ccc(C[C@H](NC(=O)CN5CCN(CC(=O)O)CCN(CC(=O)O)CCN(CC(=O)O)CC5)C(=O)O)cc4)C(=O)O)cc3)nc2c(=O)[nH]1 [Compound 38, Pte-Lys(DOTA-Tyr(O-carbonylmethyl)-OH)—OH] | 0.46 +/− 0.03 | 10.5 +/− 2.9 | 69.9 +/− 7.9 | 1.28 +/− 0.11
Nc1nc2ncc(CNc3ccc(C(=O)N[C@@H](CCCCNC(=O)COc4ccc(C[C@H](NC(=O)COc5ccc(C[C@H](NC(=O)CN6CCN(CC(=O)O)CCN(CC(=O)O)CCN(CC(=O)O)CC6)C(=O)O)cc5)C(=O)O)cc4)C(=O)O)cc3)nc2c(=O)[nH]1 [Compound 39, Pte-Lys(DOTA-(Tyr(O-carbonylmethyl)-OH)2)—OH] | 0.57 +/− 0.22 | 17.1 +/− 6.4 | 83.8 +/− 29.7 | 1.68 +/− 0.59
Nc1nc2ncc(CNc3ccc(C(=O)N[C@@H](CCCCNC(=O)C[C@H](NC(=O)[C@H](Cc4ccc5ccccc5c4)NC(=O)[C@H](Cc4ccc5ccccc5c4)NC(=O)CN4CCN(CC(=O)O)CCN(CC(=O)O)CCN(CC(=O)O)CC4)C(=O)O)C(=O)O)cc3)nc2c(=O)[nH]1 [Compound 42, Pte-Lys(β-Asp-2-Nal-2-Nal-DOTA)-OH] | 0.49 +/− 0.16 | 17.3 +/− 4.9 | 84.4 +/− 10.4 | 1.64 +/− 0.62

The next lines start with the values.

T/Kid | T/Liv | T/spl | T^2/kid | SMILES
0.58 +/− 0.10 | 13.0 +/− 3.7 | 70.2 +/− 6.7 | 1.57 +/− 0.53 | Nc1nc2ncc(CNc3ccc(C(=O)N[C@@H](CCCCNC(=O)C[C@H](NC(=O)[C@H](Cc4ccc(Br)cc4)NC(=O)CNC(=O)CN4CCN(CC(=O)O)CCN(CC(=O)O)CCN(CC(=O)O)CC4)C(=O)O)C(=O)O)cc3)nc2c(=O)[nH]1 [Compound 43, Pte-Lys(β-Asp-4-Br-Phe-Gly-DOTA)-OH]
0.59 +/− 0.12 | 28.8 +/− 2.9 | 83.1 +/− 17.3 | 0.59 +/− 0.16 | CSCC[C@H](NC(=S)Nc1ccc(CC2CN(CC(=O)O)CCN(CC(=O)O)CCN(CC(=O)O)CCN2CC(=O)O)cc1)C(=O)N[C@H](C(=O)N[C@@H](CCCCN1C(=O)CC(SC[C@@H](NC(=O)[C@H](CC(=O)O)NC(=O)[C@H](CC(=O)O)NC(=O)[C@H](CCCNC(=N)N)NC(=O)[C@H](CC(=O)O)NC(=O)CC[C@H](NC(=O)c2ccc(NCc3cnc4nc(N)[nH]c(=O)c4n3)cc2)C(=O)O)C(=O)O)C1=O)C(=O)O)C(C)C (stereo partly drawn) [Compound 58, DOTA-Bn-NHC(S)NH-Met-Val-Lys(Mal-S-Cys-Asp-Asp-Arg-Asp-Folate)-OH]
0.27 +/− 0.03 | 8.6 +/− 3.9 | 40.3 +/− 18.7 | 1.05 +/− 0.28 | Nc1nc2ncc(CNc3ccc(C(=O)N[C@@H](Cc4ccc(OCC(=O)NCCNC(=O)CN5CCN(CC(=O)O)CCN(CC(=O)O)CCN(CC(=O)O)CC5)cc4)C(=O)O)cc3)nc2c(=O)[nH]1 [Compound 61, Pte-Tyr(OCH2CO-EDA-DOTA)-OH]
0.38 +/− 0.07 | 14.6 +/− 2.0 | 85.5 +/− 7.7 | 1.48 +/− 0.51 | Nc1nc2ncc(CNc3ccc(C(=O)N[C@@H](Cc4ccc(OCCNC(=O)CN5CCN(CC(=O)O)CCN(CC(=O)O)CCN(CC(=O)O)CC5)cc4)C(=O)O)cc3)nc2c(=O)[nH]1 [Compound 64, Pte-Tyr(OCH2CH2—NH-DOTA)-OH]

These molecules were tested on KB tumor (assay: In vivo biodistribution in mice bearing KB tumors). Settings: 177Lu chelate, 200 nmol/kg.

T/Kid | T/Liv | T/spl | T^2/kid | SMILES
0.16 +/− 0.01 | 6.8 +/− 1.1 | 50.7 +/− 24.0 | 0.64 +/− 0.19 | Nc1nc2ncc(CNc3ccc(C(=O)NCCCC[C@H](NC(=O)CNC(=O)CN4CCN(CC(=O)O)CCN(CC(=O)O)CCN(CC(=O)O)CC4)C(=O)O)cc3)nc2c(=O)[nH]1 [Compound 45, DOTA-Gly-Lys(Pte)-OH]
0.19 +/− 0.03 | 6.3 +/− 1.9 | 66.9 +/− 30.8 | 0.84 +/− 0.32 | Nc1nc2ncc(CNc3ccc(C(=O)NCCCC[C@H](NC(=O)CN4CCN(CC(=O)O)CCN(CC(=O)O)CCN(CC(=O)O)CC4)C(=O)O)cc3)nc2c(=O)[nH]1 [Compound 46, DOTA-Lys(Pte)-OH]
0.32 +/− 0.09 | 11.0 +/− 2.3 | 54.8 +/− 11.3 | 1.35 +/− 0.54 | Nc1nc2ncc(CNc3ccc(C(=O)N[C@@H](CC(=O)NCCCC[C@H](NC(=O)CNC(=O)CN4CCN(CC(=O)O)CCN(CC(=O)O)CCN(CC(=O)O)CC4)C(=O)O)C(=O)O)cc3)nc2c(=O)[nH]1 [Compound 51, Pte-Asp(DOTA-Gly-ε-Lys-OH)—OH]

Same assay, conditions: 225Ac chelate, 30 nmol/kg

T/Kid | T/Liv | T/spl | SMILES
0.04 +/− 0.01 | 0.5 +/− 0.3 | 6.8 +/− 2.9 | Nc1nc2ncc(CNc3ccc(C(=O)N[C@@H](CNC(=O)CN4CCN(CC(=O)O)CCN(CC(=O)O)CCN(CC(=O)O)CC4)C(=O)O)cc3)nc2c(=O)[nH]1 [Compound 3]
0.09 +/− 0.02 | 3.5 +/− 1.9 | 19.9 +/− 10.9 | Nc1nc2ncc(CNc3ccc(C(=O)N[C@@H](CNC(=O)CCC(C(=O)O)N4CCN(CC(=O)O)CCN(CC(=O)O)CCN(CC(=O)O)CC4)C(=O)O)cc3)nc2c(=O)[nH]1 (some centres unmarked) [Compound 5]
0.07 +/− 0.03 | 3.3 +/− 1.8 | 15.8 +/− 5.9 | Nc1nc2ncc(CNc3ccc(C(=O)N[C@@H](CCC(=O)NC[C@H](N)C(=O)N[C@@H](CC(=O)O)C(=O)N[C@@H](CSC4CC(=O)N(CCNC(=O)CN5CCN(CC(=O)O)CCN(CC(=O)O)CCN(CC(=O)O)CC5)C4=O)C(=O)O)C(=O)O)cc3)nc2c(=O)[nH]1 (some centres unmarked) [Compound 25]
0.08 +/− 0.02 | 3.3 +/− 1.1 | 20.4 +/− 5.6 | Nc1nc2ncc(CNc3ccc(C(=O)N[C@@H](CCCCNC(=O)[C@H](Cc4ccc5ccccc5c4)NC(=O)[C@H]4CC[C@H](CNC(=O)CCC(C(=O)O)N5CCN(CC(=O)O)CCN(CC(=O)O)CCN(CC(=O)O)CC5)CC4)C(=O)O)cc3)nc2c(=O)[nH]1 (some centres unmarked) [Compound 26]
